In one assay the target is T1, Androgen receptor (Homo sapiens, UniProt P10275).
T1 sequence (P10275 whole entry): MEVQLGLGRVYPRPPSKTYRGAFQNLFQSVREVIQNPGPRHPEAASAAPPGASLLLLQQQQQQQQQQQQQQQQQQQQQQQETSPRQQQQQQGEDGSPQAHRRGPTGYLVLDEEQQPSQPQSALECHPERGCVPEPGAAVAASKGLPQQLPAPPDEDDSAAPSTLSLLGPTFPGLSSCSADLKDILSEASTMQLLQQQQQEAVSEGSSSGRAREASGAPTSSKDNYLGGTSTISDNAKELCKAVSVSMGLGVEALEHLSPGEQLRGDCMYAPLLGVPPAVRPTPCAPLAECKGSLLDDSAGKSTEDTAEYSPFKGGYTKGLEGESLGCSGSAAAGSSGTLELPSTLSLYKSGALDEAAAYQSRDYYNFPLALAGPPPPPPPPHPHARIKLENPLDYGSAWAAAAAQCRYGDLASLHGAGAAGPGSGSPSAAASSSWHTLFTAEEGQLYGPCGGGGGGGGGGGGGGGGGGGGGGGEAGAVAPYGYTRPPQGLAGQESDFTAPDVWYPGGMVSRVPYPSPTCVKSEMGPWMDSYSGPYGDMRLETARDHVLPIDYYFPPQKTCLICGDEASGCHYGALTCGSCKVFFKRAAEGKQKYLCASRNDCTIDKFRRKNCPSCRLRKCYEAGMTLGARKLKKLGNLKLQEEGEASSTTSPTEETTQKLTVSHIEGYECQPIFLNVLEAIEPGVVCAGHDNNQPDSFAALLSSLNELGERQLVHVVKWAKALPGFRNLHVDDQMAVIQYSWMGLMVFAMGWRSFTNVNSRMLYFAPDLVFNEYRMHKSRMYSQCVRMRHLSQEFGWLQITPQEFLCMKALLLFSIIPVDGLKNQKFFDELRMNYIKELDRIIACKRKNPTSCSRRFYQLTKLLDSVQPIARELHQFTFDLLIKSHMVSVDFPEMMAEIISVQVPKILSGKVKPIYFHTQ
Kind of assay: Binding affinity for androgen receptor.

In the next assay the target is Estrogen receptor (Homo sapiens, UniProt Q92731+P03372). Kind of assay: Binding affinity for estrogen receptor. Type of assay: protein assay.
The next assay concerns the target T2, Glucocorticoid receptor (Homo sapiens, UniProt P04150).
T2 sequence (P04150 whole entry): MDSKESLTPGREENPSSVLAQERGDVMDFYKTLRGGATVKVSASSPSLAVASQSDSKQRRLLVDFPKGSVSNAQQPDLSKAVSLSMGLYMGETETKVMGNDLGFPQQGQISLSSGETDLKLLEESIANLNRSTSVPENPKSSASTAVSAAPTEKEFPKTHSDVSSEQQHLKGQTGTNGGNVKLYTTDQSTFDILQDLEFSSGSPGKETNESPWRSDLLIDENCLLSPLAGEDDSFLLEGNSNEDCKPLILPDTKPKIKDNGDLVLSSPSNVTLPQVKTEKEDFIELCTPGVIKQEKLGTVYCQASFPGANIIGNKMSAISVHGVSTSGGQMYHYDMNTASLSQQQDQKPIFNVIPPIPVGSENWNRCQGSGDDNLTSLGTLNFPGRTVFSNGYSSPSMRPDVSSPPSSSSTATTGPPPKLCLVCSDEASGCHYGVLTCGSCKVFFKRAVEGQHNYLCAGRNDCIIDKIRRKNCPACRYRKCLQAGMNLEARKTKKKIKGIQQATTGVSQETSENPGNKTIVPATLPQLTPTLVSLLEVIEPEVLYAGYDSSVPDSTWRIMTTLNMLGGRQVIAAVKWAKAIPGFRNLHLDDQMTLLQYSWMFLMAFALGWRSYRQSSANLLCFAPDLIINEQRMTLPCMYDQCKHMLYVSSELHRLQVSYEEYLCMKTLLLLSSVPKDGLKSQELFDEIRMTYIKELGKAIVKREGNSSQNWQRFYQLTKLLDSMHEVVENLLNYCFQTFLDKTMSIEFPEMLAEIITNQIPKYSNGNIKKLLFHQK
Kind of assay: Transcriptional repression activity in HEP G2 cells expressing glucocorticoid receptor compared to Dexamethasone. It is filed as functional, cell-based, HepG2.

For assay [1], the target named is T3, Mineralocorticoid receptor (Homo sapiens, UniProt P08235).
T3 sequence (P08235 whole entry): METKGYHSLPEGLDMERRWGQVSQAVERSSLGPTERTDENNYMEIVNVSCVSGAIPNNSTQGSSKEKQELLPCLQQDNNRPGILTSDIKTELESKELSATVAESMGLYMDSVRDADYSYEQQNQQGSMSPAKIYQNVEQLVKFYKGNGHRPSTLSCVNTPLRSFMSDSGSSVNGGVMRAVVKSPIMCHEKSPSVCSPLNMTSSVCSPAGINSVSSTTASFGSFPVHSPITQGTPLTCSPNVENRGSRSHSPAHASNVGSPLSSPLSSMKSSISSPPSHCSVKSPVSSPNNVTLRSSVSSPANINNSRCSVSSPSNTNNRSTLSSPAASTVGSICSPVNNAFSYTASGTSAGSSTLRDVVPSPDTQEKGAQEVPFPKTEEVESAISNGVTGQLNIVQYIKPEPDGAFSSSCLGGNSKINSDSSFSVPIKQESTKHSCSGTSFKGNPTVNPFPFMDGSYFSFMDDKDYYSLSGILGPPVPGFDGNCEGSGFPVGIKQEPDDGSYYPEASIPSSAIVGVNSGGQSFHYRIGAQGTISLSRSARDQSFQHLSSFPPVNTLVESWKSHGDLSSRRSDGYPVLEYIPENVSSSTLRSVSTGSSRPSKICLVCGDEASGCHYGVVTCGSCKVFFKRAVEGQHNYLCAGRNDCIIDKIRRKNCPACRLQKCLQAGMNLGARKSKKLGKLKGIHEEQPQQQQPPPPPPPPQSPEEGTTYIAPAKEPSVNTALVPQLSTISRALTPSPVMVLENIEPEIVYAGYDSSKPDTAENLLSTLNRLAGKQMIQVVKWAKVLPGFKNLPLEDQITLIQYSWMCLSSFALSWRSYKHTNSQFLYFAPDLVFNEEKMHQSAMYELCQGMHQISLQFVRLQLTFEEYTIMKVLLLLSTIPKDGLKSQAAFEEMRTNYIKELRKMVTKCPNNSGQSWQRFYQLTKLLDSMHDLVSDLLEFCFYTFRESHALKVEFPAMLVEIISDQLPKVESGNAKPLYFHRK
Kind of assay: Binding affinity for mineralocorticoid receptor.

A value given as a limit tells only on which side of the number the result lay.

The Ki is the dissociation constant of the complex between target and ligand, obtained from inhibition or displacement. A high value points to weaker binding. One may read the IC50 as the concentration at which inhibition is half-maximal. The low end stands for inhibition by little substance, the high end for a need for much substance. For the compound `COc1cccc2c1-c1ccc3c(c1C(c1cccc(OCSC)c1)O2)C(C)=CC(C)(C)N3` (centres undefined), the values for the inhibition constant (Ki) (at Androgen receptor; at Estrogen receptor; in assay [1]) were 3.12 µM, greater than 1 µM and 3.84 µM, respectively. The IC50 at Glucocorticoid receptor worked out at 0.004 µM.

Values taken from ChEMBL document CHEMBL1134574, “Synthesis and characterization of non-steroidal ligands for the glucocorticoid receptor: selective quinoline derivatives with prednisolone-equivalent functional activity” (J Med Chem, 2001).
